# Measurements: patent publication EP4667628A1, “SYNTHETIC LETHALITY TO TREAT AUTOSOMAL DOMINANT POLYCYSTIC KIDNEY DISEASE (ADPKD)” (Albert-Ludwigs-Universität Freiburg Körperschaft des …, priority 2024, dated 2025)
# Where two headings read alike, the source gives them in different places.
# Experiments:
# [1] = system: isogenic wildtype mIMCD-3 cells; assay: Luminescence-based ATP-dependent cell viability assay (CellTiter-Glo 2.0), dose-response, isogenic wildtype counter screen; conditions: Mus musculus
# Method: (§1) Subculturing of cells was performed twice a week in a 1:10 ratio. Cells were maintained in a humidified incubator at 37°C and 5% CO2. […] The term "wild-type" is used for mIMCD-3 cells that were not edited by CRISPR-Cas9. The original cell line obtained from ATCC was generated from inner medullary collecting ducts of a SV-40 transgenic mouse.^13
# (§2) Prior to genome editing, a monoclonal starting cell line was generated by a single cell sorting step.
# (§3) After 72 hours cell density was checked with an inverted microscope (Zeiss Axiovert 40CFL). Cells were washed with 10 ml phosphate buffered saline (PBS). […] 10 ml DMEM:F12 with 10% FBS and 1% penicillin/streptomycin were added, cell detachment was facilitated by pipetting up and down multiple times. […] Cell density was diluted to 400,000 cells/ml for each genotype. […] Basins of 1536 well plates were filled with 25 µl (vertical basins) or 40 µl (horizontal basins) H2O in order to prevent evaporation induced edge effects. Confluency was checked after 24 hours with an Evos M5000 imaging system (Invitrogen).
# (§4) For the secondary screen and validation experiments, source plates were generated with compounds in 1:2 dilutions allowing for the generation of dose-response-curves. 30 nl of compounds per well were transferred in secondary screen and validation experiments. […] The volume of transferred DMSO was adjusted according to the transferred compound volume. […] After compound transfer, plates were centrifuged (Multifuge 3 s-r, Heraeus) for 10 seconds (1,000 rpm). […] Plates were stored in incubators at 37°C and 5% CO2 for 72 hours. A maximum of two plates was stacked in the incubator. Source plates were sealed with an Agilent Technologies Plateloc heat sealer. Prior to compound transfer source plates were centrifuged (4,200 rpm, 1 min). Sealing was removed with a Brooks XPeel device.
# (§5) After 72 hours of compound incubation, plates were allowed to adapt to room temperature for 20 minutes. […] The luminescence signal was allowed to stabilize for 20 min. Luminescence was scanned with a BMG Labtech Pherastar FSX luminescence reader with a measurement interval time of 0.16 s per well. A 1536-well plate adapted aperture was used to minimize cross-talk. Data analysis was performed with GraphPad Prism (version 9). Dose- and genotype-dependent differences in viability were checked for statistical significance by performing a two-way ANOVA (α = 0.05). Difference in protein abundance analyzed by western blot were checked for statistical significance by performing a student's t-test (α = 0.05).
# [2] = system: monoclonal PKD1 KO mIMCD-3 cell line (clone #1); assay: Luminescence-based ATP-dependent cell viability assay (CellTiter-Glo 2.0), dose-response, PKD1 knockout clone #1; set-up: species or system mouse; conditions: for IC50: Mus musculus; for effect sizes: further MEK-inhibitors tested, PKD1-deficient cells compared to wildtype cells
# Method: as §1, §2, §3, §4, §5
# [3] = system: second independent PKD1 KO clone (#2); assay: Luminescence-based ATP-dependent cell viability assay (CellTiter-Glo 2.0), dose-response, PKD1 knockout clone #2; conditions: Mus musculus
# Method: as §1, §2, §3, §4, §5
# [4] = mIMCD3, isogenic wildtype mIMCD-3 control cells, 72 hours compound incubation, read-out: IC50 wildtype
# [5] = mIMCD3, mIMCD-3 PKD1 knockout clone 1, 72 hours compound incubation, IC50 = concentration that kills 50% of the cells, read-out: IC50 PKD1-/- (clone 1)
# [6] = mIMCD3, mIMCD-3 PKD1 knockout clone 2, 72 hours compound incubation, IC50 = concentration that kills 50% of the cells, read-out: IC50 PKD1-/- (clone 2)
# [7] = mIMCD3, 72 h, read-out: IC50 wildtype (µM)
# [8] = mIMCD3, 72 h, read-out: IC50 PKD1-/- (clone 1) (µM)
# [9] = mIMCD3, 72 h, read-out: IC50 PKD1-/- (clone 2) (µM)
SMILES,"IC50 [1, 4]","IC50 [2, 5]","IC50 [3, 6]","IC50 [1, 7]","IC50 [2, 8]","IC50 [3, 9]",effect sizes [2]
Cn1c(=O)c(F)c(Nc2ccc(I)cc2F)c2c(=O)n(C[C@@H](O)CO)cnc21 [Number 25],41.9 µM,16.9 µM,9.51 µM,–,–,–,–
"O=c1c2ccccc2nc(/C=C/c2ccc([N+](=O)[O-])o2)n1-c1ccc(O)cc1 [Number 6, 3-(4-Hydroxyphenyl)-2-[(E)-2-(5-nitro-2-furyl)vinyl]-4(3H)-quinazolinone]",4.49 µM,3.17 µM,2.98 µM,–,–,–,–
"O=C(Nc1ccccc1C(=O)NCc1ccccn1)c1ccc([N+](=O)[O-])o1 [Number 8, 5-Nitro-N-{2-[(2-pyridinylmethyl)carbamoyl]phenyl}-2-furamide]",24.5 µM,19.4 µM,19.4 µM,–,–,–,–
N#CC(C#N)=NNc1ccc(OC(F)(F)F)cc1 [Number 22],4.12 µM,2.89 µM,2.42 µM,–,–,–,–
"O=C1C2=C(C(=O)c3ccccc31)[C@H]1Oc3ccccc3[C@H]1CO2 [Number 15, Pterocarpanquinone ((2S,10S)-3,12-dioxapentacyclo[11.8.0.02,10.04,9.015,20]henicosa-1(13),4,6,8,15,17,19-heptaene-14,21-dione)]",–,–,–,4.45 µM,3.54 µM,2.8 µM,–
"c1ccc(CNc2cc(-c3ccccc3)nc(-c3ccccn3)n2)cc1 [Number 10, N-benzyl-6-phenyl-2-pyridin-2-ylpyrimidin-4-amine]",7.73 µM,3.24 µM,6.03 µM,–,–,–,–
"Cn1c(/C=C/c2ccc([N+](=O)[O-])o2)nc2ccccc2c1=O [Number 5, 3-Methyl-2-[(E)-2-(5-nitro-2-furyl)vinyl]-4(3H)-quinazolinone]",4.01 µM,2.39 µM,2.64 µM,–,–,–,–
"O=C(NOC[C@H](O)CO)c1ccc(F)c(F)c1Nc1ccc(I)cc1F [Number 24, Mirdametinib]",–,–,–,–,80 µM,21.8 µM,–
"CN(C)S(=O)(=O)c1cc(NC(=O)c2ccc([N+](=O)[O-])o2)ccc1Cl [Number 12, N-[4-Chloro-3-(dimethylsulfamoyl)phenyl]-5-nitro-2-furamide]",11.2 µM,7.09 µM,8.51 µM,–,–,–,–
Cc1nc(Nc2ncc(C(=O)Nc3c(C)cccc3Cl)s2)cc(N2CCN(CCO)CC2)n1 [Number 20],3.74 µM,2.32 µM,1.42 µM,–,–,–,–
"C=CCN1C(=O)CS/C1=N\NC(=S)NC [Number 1, 1-methyl-3-[(Z)-(4-oxo-3-prop-2-enyl-1,3-thiazolidin-2-ylidene)amino]thiourea]",> 30 µM,11.5 µM,10 µM,–,–,–,–
"COc1cc2ncnc(Nc3cccc(Cl)c3C)c2cc1OC [Number 7, N-(3-Chloro-2-methylphenyl)-6,7-dimethoxy-4-quinazolinamine]",> 30 µM,17 µM,12.1 µM,–,–,–,–
"CC(=O)N(C)c1ccc(Nc2nc(NC3CCC3)c3[nH]cnc3n2)cc1 [Number 18, N-(4-{[6-(Cyclobutylamino)-7H-purin-2-yl]amino}phenyl)-N-methylacetamide]",5.93 µM,3.07 µM,2.53 µM,–,–,–,–
"COc1cc(NC(=O)c2ccc([N+](=O)[O-])o2)cc(C(F)(F)F)c1 [Number 9, N-[3-Methoxy-5-(trifluoromethyl)phenyl]-5-nitro-2-furamide]",–,15 µM,15.5 µM,18.4 µM,–,–,–
CCOC(=O)CCNc1cc(N2CCc3ccccc3CC2)nc(-c2ccccn2)n1 [Number 17],7.69 µM,3.41 µM,6.08 µM,–,–,–,–
"O=C(NOC[C@H](O)CO)c1ccc(F)c(F)c1Nc1ccc(I)cc1F [Number 24, Mirdametinib, reference compound]",–,–,–,–,–,–,strong effect sizes
"Fc1ccccc1-c1cc(NCCc2c[nH]c3ccccc23)nc(-c2ccccn2)n1 [Number 11, 6-(2-Fluorophenyl)-N-[2-(1H-indol-3-yl)ethyl]-2-(2-pyridinyl)-4-pyrimidinamine]",9.68 µM,3.05 µM,6.43 µM,–,–,–,–
O=C(NOCC1CC1)c1ccc(F)c(F)c1Nc1ccc(I)cc1Cl [Number 23],10.3 µM,6.21 µM,7.96 µM,–,–,–,–
"Cc1c(Cl)cccc1Nc1ncnc2cc(Cl)ccc12 [Number 3, 7-Chloro-N-(3-chloro-2-methylphenyl)-4-quinazolinamine]",> 30 µM,> 30 µM,14 µM,–,–,–,–
"COc1cc(F)c(F)c(Nc2ccc(I)cc2F)c1NS(=O)(=O)C1(C[C@H](O)CO)CC1 [Number 14, Refametinib]",–,> 30 µM,> 30 µM,> 30 µM,–,–,–
"CC(C)c1cc(N2CCCCC2)nc(-c2ccccn2)n1 [Number 13, 4-Piperidin-1-yl-6-propan-2-yl-2-pyridin-2-ylpyrimidine]",28.7 µM,6.75 µM,18.7 µM,–,–,–,–
N#CC(C#N)=NNc1cccc(Cl)c1 [Number 4],4.31 µM,3.54 µM,2.85 µM,–,–,–,–
"COc1ccc(Cc2c(N)nc(-c3ccccn3)nc2N)cc1 [Number 19, 5-(4-Methoxybenzyl)-2-(2-pyridinyl)-4,6-pyrimidinediamine]",36.5 µM,20 µM,24.9 µM,–,–,–,–
"S=C(SSC(=S)N1CCOCC1)N1CCOCC1 [Number 21, Dimorpholinethiuram disulfide]",19.8 µM,5.3 µM,3.94 µM,–,–,–,–
"Cn1c(=O)c(F)c(Nc2ccc(I)cc2F)c2c(=O)n(C[C@@H](O)CO)cnc21 [Number 25, Tak-733, reference compound]",–,–,–,–,–,–,strong effect sizes
